Laboratory results: patent publication US12630571B2, “Crystal form of L-glufosinate and preparation method and use thereof” (JIANGSU SEVENCONTINENT GREEN TECHNOLOGY RESEARCH INSTITUTE …, priority 2022, dated 2026)

What was measured:
[1] = DSC heat absorption and decomposition temperatures (high temperature stability); format: physicochemical; details: for Peak: DSC endothermic peak temperature; for Start of heat absorption: DSC
Method: (§1) In the present application, the test instruments and conditions used in the experiment are as follows: • 1. The crystal form of the product was analyzed by X-ray powder diffractometer (XRD, Rigaku D/Max-2500 type, Cu Kα radiation, λKα=0.15406 nm), the emission voltage and current were 40 kV and 100 mA, respectively, and the scanning range was 2-40°, the scan step size was 0.02°, and the scan rate was 8°/min. • 2. Differential Scanning calorimetry (DSC) and Thermogravimetric Analysis (TGA): DSC and TGA analyses were performed using a TGA/DSC Model 1 instrument from Mettler Toledo. The DSC measurement method was as follows: take 5-10 mg of the sample into an aluminum crucible, put it into the instrument, set the nitrogen flow rate to 50 ml/min, 200 ml/min, and increase the temperature from 30° C. to 200° C. at a rate of 10° C./min, and analysis was performed using STAR software from Mettler Toledo. The TGA measurement method was as follows: take 5-10 mg of the sample into an aluminum crucible, put it into the instrument, set the nitrogen flow rate to 20 ml/min, 50 ml/min, and increase the temperature from 30° C. to 200° C. at a rate of 10° C./min, and analysis was performed using STAR software from Mettler Toledo.
For the crystal form A, crystal form B, crystal form D and crystal form E of L-glufosinate ammonium, the data comparison of its high temperature stability were shown in Table 6.

[2] = Hygroscopicity test; format: physicochemical; details: 48 h; for Weight change (%): 100 g solid
Method: Experimental scheme: 100 g of solids were placed under different humidity for 48 h, and re-measured whether there was a significant change in their quality, and visually inspected whether there was a significant change in their appearance, so as to determine whether the crystal form had hygroscopicity, and the specific results of the crystal forms A, B, and C were shown in Table 7, and the specific results of the crystal forms D and E were shown in Table 8.

[3] = Stability test (storage); format: physicochemical; details: for Appearance (change after storage) / Crystal form (change after storage) / Weight change (%): humidity 65%; for stability (in words): compared with the crystal forms in CN111065270A
Method: Experimental method: The crystal forms A, B, and C were stored at a temperature of 60° C. for 7 days, the crystal form changes were re-measured, and the specific results were shown in Table 9.
The crystals obtained in Embodiments 4-9 were stored for 48 days at 25° C. and 60° C., respectively, the crystal form changes were re-measured, and the specific results were shown in Table 10.

[4] = tested on: Alopecurus aequalis; test: Field efficacy experiment, plant control effect; format: in vivo; details: 10% aqueous solution, 120 mL/mu, 7 days after treatment
Method: (§2) The combination of preparation processing and field efficacy test was adopted below.
(§3) The above-mentioned formulations were prepared with the crystals of the embodiments of the present disclosure and the crystal form A in the patent CN111065270A respectively for field efficacy experiments. It was detected that the physical and chemical properties of the aqueous solution products prepared by each crystal form were stable and met the needs of production and use, and at the same time, field experiments were carried out on different weeds. The dosage was 120 mL/mu.
(§4) Referring to the “Pesticide-Guidelines for the field efficacy trials”, 5 sites were investigated in each plot, each site was 1 square meter, and the types of weeds, the total number of plants, the symptoms of poisoning, the number of dead plants, etc. were recorded for each treatment 7 days after the treatment, and then the results of the plant control effect were counted, and the weed mortality was calculated and counted specifically.

[5] = tested on: Bluegrass; test: Field efficacy experiment, plant control effect; format: in vivo; details: 10% aqueous solution, 120 mL/mu, 7 days after treatment
Method: as §2, §3, §4

[6] = tested on: Euphorbia helioscopia; test: Field efficacy experiment, plant control effect; format: in vivo; details: 10% aqueous solution, 120 mL/mu, 7 days after treatment
Method: as §2, §3, §4

[7] = tested on: Rumex; test: Field efficacy experiment, plant control effect; format: in vivo; details: 10% aqueous solution, 120 mL/mu, 7 days after treatment
Method: as §2, §3, §4

[8] = Thermogravimetric analysis (TGA); format: physicochemical
Method: as §1

[9] = tested on: weeds such as Rumex, Alopecurus aequalis, Euphorbia helioscopia, and bluegrass; test: Field efficacy experiment, summary statements over all weeds; format: in vivo; details: difference in plant control effect
Method: as §2, §3, §4

[10] = listed as Crystal form A of L-glufosinate ammonium
[11] = listed as Crystal form A of Embodiment 1 of the present disclosure
[12] = listed as Crystal form B of L-glufosinate ammonium
[13] = listed as Crystal form B of Embodiment 2 of the present disclosure
[14] = listed as Crystal form D of L-glufosinate ammonium
[15] = listed as Crystal form D of L-Glufosinate Ammonium
[16] = listed as Crystal form D of Embodiment 4 of the present disclosure
[17] = listed as Crystal form E of L-glufosinate ammonium
[18] = listed as Crystal form E of L-Glufosinate Ammonium
[19] = listed as Crystal form E of Embodiment 5 of the present disclosure

## CP(=O)(O)CC[C@H](N)C(=O)O.N [Crystal form A, L-glufosinate ammonium]
[1]; [10]
  Peak: 129° ° C.
  Start of heat absorption: 110° ° C.
[1]; versus the ammonium salt crystal forms in the existing patent
  high temperature stability (in words): better high temperature stability
[2]; 20° C., humidity 65%, listed as A
  Weight change (%): +0.02%
[2]; 20° C., humidity 80%, listed as A
  Weight change (%): +1.45%
[3]; 60° C., 7 days
  Appearance (change after storage): Unchanged
  Crystal form (change after storage): Unchanged
[3]
  stability (in words): excellent stability
[4]; [11]
  Plant control effect (%) Alopecurus aequalis: 80%
[5]; [11]
  Plant control effect (%) Bluegrass: 80%
[6]; [11]
  Plant control effect (%) Euphorbia helioscopia: 80%

## CP(=O)(O)CC[C@H](N)C(=O)O.N [Crystal form B, L-glufosinate ammonium]
[1]; [12]
  Peak: 134° ° C.
  Start of heat absorption: 125° ° C.
[2]; 20° C., humidity 65%, listed as B
  Weight change (%): +0.03%
[2]; 20° C., humidity 80%, listed as B
  Weight change (%): +1.55%
[4]; [13]
  Plant control effect (%) Alopecurus aequalis: 85%
[5]; [13]
  Plant control effect (%) Bluegrass: 80%
[6]; [13]
  Plant control effect (%) Euphorbia helioscopia: 80%
[7]
  Plant control effect (%) Rumex: 100%

## CP(=O)(O)CC[C@H](N)C(=O)O [Crystal form C, L-glufosinate]
[2]; 20° C., humidity 65%
  Weight change (%): +0.02%
[2]; 20° C., humidity 80%
  Weight change (%): +1.54%
[3]; 60° C., 7 days
  Appearance (change after storage): Unchanged
  Crystal form (change after storage): Unchanged
[3]
  stability (in words): excellent stability

## CP(=O)(O)CC[C@H](N)C(=O)O.N [Crystal form D, L-glufosinate ammonium]
[1]; [14]
  Peak: 179.83° ° C.
  Start of heat absorption: 161.84° ° C.
[8]; [15]
  temperature below which the weight of the crystal was basically unchanged: 139.5 °C
  temperature from which weight decreased rapidly (decomposition): 206.5 °C
  temperature from which weight started to decrease slowly (release of ammonia gas): 139.5 °C
[2]; 25° C., humidity 65%
  Appearance change: Unchanged
[2]; 25° C., humidity 65%, listed as Embodiment 4
  Weight change (%): +0.03%
[2]; 25° C., humidity 65%, listed as Embodiment 6
  Weight change (%): +0.03%
[2]; 25° C., humidity 65%, listed as Embodiment 7
  Weight change (%): +0.01%
[2]; 25° C., humidity 80%
  Appearance change: Unchanged
[2]; 25° C., humidity 80%, listed as Embodiment 4
  Weight change (%): +1.12%
[2]; 25° C., humidity 80%, listed as Embodiment 6
  Weight change (%): +1.17%
[2]; 25° C., humidity 80%, listed as Embodiment 7
  Weight change (%): +1.12%
[3]; 25° C., 48 days, listed as Embodiment 4
  Weight change (%): +0.03%
[3]; 25° C., 48 days, listed as Embodiment 6
  Weight change (%): +0.03%
[3]; 25° C., 48 days, listed as Embodiment 7
  Weight change (%): +0.01%
[3]; 60° C., 48 days
  Appearance (change after storage): Unchanged
  Crystal form (change after storage): Unchanged
[3]; 60° C., 48 days, listed as Embodiment 4
  Weight change (%): +0.02%
[3]; 60° C., 48 days, listed as Embodiment 6
  Weight change (%): +0.02%
[3]; 60° C., 48 days, listed as Embodiment 7
  Weight change (%): +0.01%
[3]; at 25° C. and 60° C.
  storage stability (in words): excellent storage stability
[4]; [16]
  Plant control effect (%) Alopecurus aequalis: 86%
[5]; [16]
  Plant control effect (%) Bluegrass: 85%
[6]; [16]
  Plant control effect (%) Euphorbia helioscopia: 85%
[9]
  efficacy higher than other crystal forms of the ammonium salt: about 5%

## CP(=O)(O)CC[C@H](N)C(=O)O.N [Crystal form E, L-glufosinate ammonium]
[1]; [17]
  Peak: 185.833° ° C.
  Start of heat absorption: 147° ° C.
[8]; [18]
  temperature below which the weight of the crystal was basically unchanged: 95.5 °C
  temperature from which weight decreased rapidly (decomposition): 226.5 °C
  temperature from which weight started to decrease slowly (release of ammonia gas): 147 °C
[8]; starting at 95.5° C.
  slow weight decrease: 1.2%
[2]; 25° C., humidity 65%, listed as Embodiment 5
  Weight change (%): +0.02%
[2]; 25° C., humidity 65%, listed as Embodiment 8
  Weight change (%): +0.02%
[2]; 25° C., humidity 65%, listed as Embodiment 9
  Weight change (%): +0.02%
[2]; 25° C., humidity 80%, listed as Embodiment 5
  Weight change (%): +1.23%
[2]; 25° C., humidity 80%, listed as Embodiment 8
  Weight change (%): +1.15%
[2]; 25° C., humidity 80%, listed as Embodiment 9
  Weight change (%): +1.18%
[3]; 25° C., 48 days
  Appearance (change after storage): Unchanged
  Crystal form (change after storage): Unchanged
[3]; 25° C., 48 days, listed as Embodiment 5
  Weight change (%): +0.02%
[3]; 25° C., 48 days, listed as Embodiment 8
  Weight change (%): +0.02%
[3]; 25° C., 48 days, listed as Embodiment 9
  Weight change (%): +0.02%
[3]; 60° C., 48 days, listed as Embodiment 5
  Weight change (%): +0.01%
[3]; 60° C., 48 days, listed as Embodiment 8
  Weight change (%): +0.02%
[3]; 60° C., 48 days, listed as Embodiment 9
  Weight change (%): +0.02%
[4]; [19]
  Plant control effect (%) Alopecurus aequalis: 85%
[5]; [19]
  Plant control effect (%) Bluegrass: 85%
[6]; [19]
  Plant control effect (%) Euphorbia helioscopia: 90%

## CP(=O)(O)CCC(N)C(=O)O.N (stereo not drawn) [Crystal form in CN113831364A, reference compound]
[1]
  Start of heat absorption: 104° ° C.
  Peak: 115° ° C.
